Experimental data reported in patent US8344028B2, “Gamma-amino-butyric acid derivatives as GABAB receptor ligands” (XenoPort, Inc., priority 2009, dated 2013).

The compounds below were run against GABAB receptor (Homo sapiens, UniProt Q9UBS5) (assay: GABAB receptor agonist or partial agonist activity by binding, electrophysiology, cAMP and/or Ca2+ assay methods (Examples 83-86)).
Assay type: cell-based
Experimental: An assay using rat cerebral cortex membranes was used to determine the affinity of GABAB receptor ligands for the GABAB receptor.
An assay buffer of 50 mM Tris pH 7.4 was prepared with 100 μM of isoguvacine, to block GABAA interactions. The assay buffer with isoguvacine was used for dilution of membranes, compounds, and radiolabel.
Rat cerebral cortex membranes were diluted in assay buffer at 1 mg/mL and aliquoted into a 96-well plate at 900 μL/well. Buffer or test compound were added at 20-times final concentration in the buffer at 50 μL/well. Membranes and test compounds or buffer were incubated for 10 min. at room temperature. Radiolableled [S—(R*,R*)]-[3-[[1-(3,4-dichlorophenyl)ethyl]amino]-2-hydroxypropyl](cyclohexylmethyl) phosphinic acid (CGP54626) was then added at 50 μL/well in the buffer at 1-10 nM concentration in 50 μl. […] The assay mixture was filtered using Brandell filtration apparatus and GFB filters, washed twice with 3 mL of 4° C., 50 mM Tris pH 7.4, buffer without isoguvacine. The filters were then dried at room temperature and the dried filters punched out and placed in individual vials. Three (3) mL of scintillation fluid was added to each vial and the radiolabel counted on the scintillation counter. The inverse amount of radiolabel was indicative of binding of a test compound to the GABAB receptor.
The following procedure was used to determine the level of intracellular cAMP. Recombinant HEK cells expressing the GABAB R1a2 receptor were used in the experiments. cAMP levels were measured using a cAMP XS^+ HitHunter™ Chemiluminescence Assay Kit (90-0075-02, GE Healthcare Biosciences Corp.). Cells were seeded overnight at 5,000 cells per well, in black, clear bottom 96-well plates. The following morning, cells were washed twice with 100 μL PBS per well. Forskolin was weighed out and dissolved in DMSO to a final concentration 100 mM. One-hundred (100) μM forskolin solutions were prepared in PBS with and without test compound at 1-times final concentration. Thirty (30) μL of the test solutions were added to the wells and incubated for 1 h at room temperature. The cAMP concentration was determined according to the protocol described in the cAMP assay kit, maintaining the plate at room temperature and in the dark. […] Each well was read for 6 seconds. The untransformed data was then analyzed.
The following procedure was used to determine the GABAB receptor agonist activity of a compound as reflected by activation of Ca^2+ signaling. HEK TREx cells expressing GABABR1a2 under tetracycline induction control, and Gqi chimeric protein (expressed constitutively), allowing GABABR coupling through the Ca^2+ signaling pathway were used in the experiments.
Cells were seeded in media containing tetracycline overnight at 100,000 cells/well, in black, clear-bottom, 96-well plates. The following morning, cells were washed twice with 100 μL HBSS buffer per well. Fluorescent Ca^2+ indicator dye was prepared using the materials and procedure described in the F362056 Fluo-4 NW Calcium Assay Kit (Invitrogen, Carlsbad, Calif.). Ten (10) mL of kit buffer and 100 μl of kit Probenecid were added to individual kit dye vials, and rolled back and forth several times to dissolve the dye. Cells were then loaded into the dye solution at 50 μL per well. The cells and dye were incubated for 30 min at 37° C., and then incubated for an additional 30 min at room temperature in the dark. Test compounds are dissolved in HBSS buffer at twice final concentration. Duplicate wells were used for each unique condition. Solution containing the test compound was added to the wells using a FLEXStation II (Molecular Devices, Sunnyvale, Calif.). Using the instrument in kinetic mode in which each well was read every 2 sec over a total collection time of 50 sec fluorescence was measured using an excitation wavelength 494 nm and a detection wavelength of 516 nm. A normalized fluorescence value for each well was calculated using the following procedure.

GABAB receptor, sequence (Q9UBS5 20-961): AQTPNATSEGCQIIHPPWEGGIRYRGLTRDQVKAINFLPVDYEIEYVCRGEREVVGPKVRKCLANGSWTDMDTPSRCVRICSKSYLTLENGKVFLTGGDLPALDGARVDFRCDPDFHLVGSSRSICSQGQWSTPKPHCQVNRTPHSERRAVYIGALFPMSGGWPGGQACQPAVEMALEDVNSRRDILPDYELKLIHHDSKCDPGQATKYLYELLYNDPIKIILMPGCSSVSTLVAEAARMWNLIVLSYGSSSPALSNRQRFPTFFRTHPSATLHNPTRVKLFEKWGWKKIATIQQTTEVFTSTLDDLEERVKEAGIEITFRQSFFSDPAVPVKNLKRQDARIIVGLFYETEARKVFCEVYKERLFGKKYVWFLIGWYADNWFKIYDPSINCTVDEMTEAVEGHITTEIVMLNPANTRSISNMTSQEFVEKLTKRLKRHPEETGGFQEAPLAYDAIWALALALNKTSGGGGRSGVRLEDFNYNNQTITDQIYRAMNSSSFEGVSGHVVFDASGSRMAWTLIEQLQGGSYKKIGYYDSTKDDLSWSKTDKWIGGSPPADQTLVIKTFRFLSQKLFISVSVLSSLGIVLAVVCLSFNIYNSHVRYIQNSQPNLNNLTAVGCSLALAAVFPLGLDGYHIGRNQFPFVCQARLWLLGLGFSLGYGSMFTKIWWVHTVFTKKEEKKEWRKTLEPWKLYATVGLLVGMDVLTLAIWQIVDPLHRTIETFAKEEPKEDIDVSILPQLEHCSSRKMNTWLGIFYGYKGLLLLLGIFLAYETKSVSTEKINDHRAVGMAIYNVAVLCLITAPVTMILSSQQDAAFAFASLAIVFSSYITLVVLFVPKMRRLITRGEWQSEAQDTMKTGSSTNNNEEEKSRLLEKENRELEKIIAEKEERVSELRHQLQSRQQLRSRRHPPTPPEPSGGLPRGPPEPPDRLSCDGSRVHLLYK
GABAB receptor, sequence (O75899 42-941 partner): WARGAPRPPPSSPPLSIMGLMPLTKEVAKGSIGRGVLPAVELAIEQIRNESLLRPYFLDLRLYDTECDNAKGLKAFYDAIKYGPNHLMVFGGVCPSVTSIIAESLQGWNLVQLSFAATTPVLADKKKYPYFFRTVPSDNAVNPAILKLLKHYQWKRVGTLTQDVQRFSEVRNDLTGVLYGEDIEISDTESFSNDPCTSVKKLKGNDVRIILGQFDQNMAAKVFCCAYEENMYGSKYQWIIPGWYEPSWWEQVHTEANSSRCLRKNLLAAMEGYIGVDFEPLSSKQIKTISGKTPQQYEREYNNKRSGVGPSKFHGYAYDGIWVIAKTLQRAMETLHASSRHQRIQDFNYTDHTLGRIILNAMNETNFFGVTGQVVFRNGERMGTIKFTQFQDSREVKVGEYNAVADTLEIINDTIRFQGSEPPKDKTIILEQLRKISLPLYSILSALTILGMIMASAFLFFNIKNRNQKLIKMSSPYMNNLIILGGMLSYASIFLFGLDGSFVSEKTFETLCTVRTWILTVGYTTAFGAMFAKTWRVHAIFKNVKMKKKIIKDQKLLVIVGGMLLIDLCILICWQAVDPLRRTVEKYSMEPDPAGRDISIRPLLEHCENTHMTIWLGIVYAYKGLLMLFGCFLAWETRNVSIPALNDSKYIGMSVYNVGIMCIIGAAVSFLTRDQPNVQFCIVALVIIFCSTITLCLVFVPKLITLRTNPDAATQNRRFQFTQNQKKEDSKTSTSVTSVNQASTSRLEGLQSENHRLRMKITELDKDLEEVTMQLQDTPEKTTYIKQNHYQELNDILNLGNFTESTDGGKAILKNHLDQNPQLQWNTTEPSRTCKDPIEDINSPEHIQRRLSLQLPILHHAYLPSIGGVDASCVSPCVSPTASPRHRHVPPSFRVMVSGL

Row | GABAB receptor agonist or partial agonist activity | Compound
1 | agonist or partial agonist activity | Cl.NC[C@H](CC(=O)O)c1ccc(Cl)c(NCc2ccco2)c1 [(3R)-4-amino-3-{4-chloro-3-[(2-furylmethyl)amino]phenyl}butanoic acid hydrochloride]
2 | agonist or partial agonist activity | Cl.NC[C@H](CC(=O)O)c1ccc(Cl)cc1-c1cccnc1 [Example 8, (3R)-4-Amino-3-[4-chloro-2-(3-pyridyl)phenyl]butanoic acid hydrochloride]
3 | agonist or partial agonist activity | COc1cccc(-c2cc([C@H](CN)CC(=O)O)ccc2Cl)c1.Cl [Example 35, (3R)-4-Amino-3-[4-chloro-3-(3-methoxyphenyl)phenyl]butanoic acid hydrochloride]
4 | agonist or partial agonist activity | Cl.NC[C@H](CC(=O)O)c1ccc(Cl)c(NCc2ccncc2Cl)c1 [(3R)-4-amino-3-(4-chloro-3-{[(3-chloro(4-pyridyl))methyl]amino}phenyl)butanoic acid hydrochloride]
5 | agonist or partial agonist activity | Cl.NC[C@H](CC(=O)O)c1ccc(Cl)c(OCc2cccc(C(=O)O)c2)c1 [3-({5-[(1R)-2-amino-1-(carboxymethyl)ethyl]-2-chlorophenoxy}methyl)benzoic acid hydrochloride]
6 | agonist or partial agonist activity | Cl.NC[C@H](CC(=O)O)c1ccc(Cl)c(/C=C/c2cccc(C(=O)O)c2)c1 [3-((1E)-2-{5-[(1R)-2-amino-1-(carboxymethyl)ethyl]-2-chlorophenyl}vinyl)benzoic acid hydrochloride]
7 | agonist or partial agonist activity | NC[C@H](CC(=O)O)c1ccc(Cl)c(Oc2cccc(C(=O)O)c2)c1 [Example 22, 3-{5-[(1R)-2-Amino-1-(carboxymethyl)ethyl]-2-chlorophenoxy}benzoic acid]
8 | agonist or partial agonist activity | Cl.NC[C@@H](CC(=O)O)c1ccc(Cl)c(NCc2ccncc2)c1 [(3S)-4-amino-3-{4-chloro-3-[(4-pyridylmethyl)amino]phenyl}butanoic acid hydrochloride]
9 | agonist or partial agonist activity | NC[C@H](CC(=O)O)c1ccc(Cl)c(-c2cncc(C(F)(F)F)c2)c1 [(3R)-4-amino-3-{4-chloro-3-[5-(trifluoromethyl)(3-pyridyl)]phenyl}butanoic acid]
10 | agonist or partial agonist activity | Cl.NC[C@H](CC(=O)O)c1ccc(Cl)c(-c2cccc(C(=O)O)n2)c1 [6-{5-[(1R)-2-amino-1-(carboxymethyl)ethyl]-2-chlorophenyl}pyridine-2-carboxylic acid hydrochloride]
11 | agonist or partial agonist activity | NC[C@H](CC(=O)O)c1cc(Br)c(Cl)c(-c2cccnc2)c1 [(3R)-4-amino-3-(5-bromo-4-chloro-3-(3-pyridyl)phenyl)butanoic acid]
12 | agonist or partial agonist activity | CN(C(=O)c1ccccc1)c1cc([C@H](CN)CC(=O)O)ccc1Cl.Cl [(3R)-4-amino-3-[4-chloro-3-(N-methylphenylcarbonylamino)phenyl]butanoic acid hydrochloride]
13 | agonist or partial agonist activity | Cc1ccc(-c2cc([C@H](CN)CC(=O)O)ccc2Cl)cc1C#N.Cl [(3R)-4-amino-3-[4-chloro-3-(3-cyano-4-methylphenyl)phenyl]butanoic acid hydrochloride]
14 | agonist or partial agonist activity | Cl.NC[C@H](CC(=O)O)c1ccc(Cl)c(-c2cccc(CC(=O)O)c2)c1 [Example 43, (3R)-4-Amino-3-{3-[3-(carboxymethyl)phenyl]-4-chlorophenyl}butanoic acid hydrochloride]
15 | agonist or partial agonist activity | Cl.N#Cc1cc(-c2cc([C@H](CN)CC(=O)O)ccc2Cl)ccc1F [(3R)-4-amino-3-[4-chloro-3-(3-cyano-4-fluorophenyl)phenyl]butanoic acid hydrochloride]
16 | agonist or partial agonist activity | Cc1cc(-c2cc([C@H](CN)CC(=O)O)ccc2Cl)ccc1Cl.Cl [(3R)-4-amino-3-[4-chloro-3-(4-chloro-3-methylphenyl)phenyl]butanoic acid hydrochloride]
17 | agonist or partial agonist activity | Cl.N#Cc1cccc(-c2cc([C@H](CN)CC(=O)O)ccc2Cl)c1F [(3R)-4-amino-3-[4-chloro-3-(3-cyano-2-fluorophenyl)phenyl]butanoic acid hydrochloride]
18 | agonist or partial agonist activity | Cl.N#Cc1cccc(-c2cc([C@H](CN)CC(=O)O)cc(Br)c2Cl)c1 [(3R)-4-amino-3-[3-bromo-4-chloro-5-(3-cyanophenyl]butanoic acid hydrochloride]
19 | agonist or partial agonist activity | Cc1cc(C(=O)Nc2cc([C@H](CN)CC(=O)O)ccc2Cl)n(C)n1 [(3R)-4-amino-3-{3-[(1,3-dimethylpyrazol-5-yl)carbonylamino]-4-chlorophenyl}butanoic acid]
20 | agonist or partial agonist activity | Cl.NC[C@H](CC(=O)O)c1ccc(Cl)c(-c2ccc(C(=O)O)nc2)c1 [5-{5-[(1R)-2-amino-1-(carboxymethyl)ethyl]-2-chlorophenyl}pyridine-2-carboxylic acid hydrochloride]
21 | agonist or partial agonist activity | Cn1cncc1CNc1cc([C@H](CN)CC(=O)O)ccc1Cl [Example 59, (3R)-4-Amino-3-(4-chloro-3-{[(1-methylimidazol-5-yl)methyl]amino}phenyl)butanoic acid]
22 | agonist or partial agonist activity | Cl.NC[C@H](CC(=O)O)c1ccc(Cl)cc1C(=O)c1ccccc1 [Example 11, (3R)-4-Amino-3-[4-chloro-2-(phenylcarbonyl)phenyl]butanoic acid hydrochloride]
23 | agonist or partial agonist activity | Cl.N#Cc1ccc(C(=O)O)cc1-c1cc([C@H](CN)CC(=O)O)ccc1Cl [3-{5-[(1R)-2-amino-1-(carboxymethyl)ethyl]-2-chlorophenyl}-4-cyanobenzoic acid hydrochloride]
24 | agonist or partial agonist activity | NC[C@H](CC(=O)O)c1ccc(Cl)c(NC(=O)c2ccc([N+](=O)[O-])cc2)c1 [(3R)-4-amino-3-{4-chloro-3-[(4-nitrophenyl)carbonylamino]phenyl}butanoic acid]
25 | agonist or partial agonist activity | Cl.NC[C@H](CC(=O)O)c1ccc(Cl)c(NCc2ccc(F)cc2)c1 [(3R)-4-amino-3-(4-chloro-3-{[(4-fluorophenyl)methyl]amino}phenyl)butanoic acid hydrochloride]
26 | agonist or partial agonist activity | Cl.NC[C@H](CC(=O)O)c1ccc(Cl)c(NS(=O)(=O)c2ccccn2)c1 [(3R)-4-amino-3-{4-chloro-3-[(2-pyridylsulfonyl)amino]phenyl}butanoic acid hydrochloride]
27 | agonist or partial agonist activity | NC[C@H](CC(=O)O)c1ccc(Cl)c(Nc2ccccc2C(=O)O)c1 [Example 13, 2-({5-[(1R)-2-Amino-1-(carboxymethyl)ethyl]-2-chlorophenyl}amino)benzoic acid]

Row | Compound | GABAB receptor agonist or partial agonist activity
28 | (3R)-4-amino-3-{4-chloro-3-[(2-pyridyl)carbonylamino]phenyl)carbonylamino]phenyl}butanoic acid | agonist or partial agonist activity
